Our source for the pest or weed control and melting point values is patent US20120053053A1, “PYRIMIDINE DERIVATIVES AND THEIR USE AS HERBICIDES” (SYNGENTA CROP PROTECTION, LLC, priority 2009, published 2012).

For series [1], the system named is Amaranthus retoflexus (AMARE). Description: Pre-emergence biological efficacy (percentage damage). Conditions: Amaranthus retroflexus, 312 h, evaluated after 13 days, 100=total damage, 0=no damage; for pest or weed control at 1000 g/ha: dose 1,000 g/ha. The class given is in vivo. In short, it runs like this:
(§1)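 In this pre-emergence test, pots of standard soil sown with seed are treated after one day of glasshouse cultivation using compound formulated in acetone/water (50:50) containing 0.5% Tween 20, dosed at 250 or 1000 g/ha. Growth continues at 24/16 °C day/night with 14 h light and 65% humidity, and damage is rated after 13 days.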

Series [2] has as its system Setaria faberi (SETFA). The description is as above. It is filed as in vivo. Conditions: Setaria faberi, 312 h, evaluated after 13 days, 100=total damage, 0=no damage; for pest or weed control at 1000 g/ha: dose 1,000 g/ha. In a few lines:
as §1

Series [3] concerns Echinochloa crus-galli (ECHCG). The description is as above. The class given is in vivo. Conditions: Echinochloa crus-galli, 312 h, evaluated after 13 days, 100=total damage, 0=no damage; for pest or weed control at 1000 g/ha: dose 1,000 g/ha. In a few lines: as §1
In series [4] the test system is Alopecurus myosuroides (ALOMY). Described as above. It is filed as in vivo. Conditions: Alopecurus myosuroides, 312 h, evaluated after 13 days, 100=total damage, 0=no damage; for pest or weed control at 1000 g/ha: dose 1,000 g/ha. In short, it runs like this: as §1
Series [5] deals with Solanum nigrum (SOLNI). The description is as above. It is filed as in vivo. Conditions: Solanum nigrum, 312 h, evaluated after 13 days, 100=total damage, 0=no damage; for pest or weed control at 1000 g/ha: dose 1,000 g/ha. In short, it runs like this:
as §1

Series [6] relates to Ipomea hederaceae (IPOHE). The description is as above. It is filed as in vivo. Conditions: Ipomoea hederacea, 312 h, evaluated after 13 days, 100=total damage, 0=no damage; for pest or weed control at 1000 g/ha: dose 1,000 g/ha. In a few lines: as §1
Series [7] has as its system Amaranthus retoflexus (AMARE). Description: Post-emergence biological efficacy (percentage damage). It is filed as in vivo. Conditions: Amaranthus retroflexus, 312 h, evaluated after 13 days, 100=total damage, 0=no damage; for pest or weed control at 1000 g/ha: dose 1,000 g/ha. In short, it runs like this:
(§2)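 Pot-grown plants are cultivated 8 days under glasshouse conditions (24/16 °C, 14 h light, 65% humidity), sprayed at a dose of 250 or 1000 g/ha, kept under the same conditions with twice-daily watering, and rated for damage after 13 days.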

The test system of series [8] is Setaria faberi (SETFA). The description is as above. The class given is in vivo. Conditions: Setaria faberi, 312 h, evaluated after 13 days, 100=total damage, 0=no damage; for pest or weed control at 1000 g/ha: dose 1,000 g/ha. In short, it runs like this: as §2
Series [9] has as its system Echinochloa crus-galli (ECHCG). The description is as above. Conditions: Echinochloa crus-galli, 312 h, evaluated after 13 days, 100=total damage, 0=no damage; for pest or weed control at 1000 g/ha: dose 1,000 g/ha. It is filed as in vivo. In short, it runs like this: as §2
In series [10] the test system is Alopecurus myosuroides (ALOMY). Described as above. The class given is in vivo. Conditions: Alopecurus myosuroides, 312 h, evaluated after 13 days, 100=total damage, 0=no damage; for pest or weed control at 1000 g/ha: dose 1,000 g/ha. In short, it runs like this:
as §2

Series [11] has as its system Solanum nigrum (SOLNI). Described as above. Conditions: Solanum nigrum, 312 h, evaluated after 13 days, 100=total damage, 0=no damage; for pest or weed control at 1000 g/ha: dose 1,000 g/ha. The class given is in vivo. In a few lines: as §2
Series [12] has as its system Ipomea hederaceae (IPOHE). Described as above. It is filed as in vivo. Conditions: Ipomoea hederacea, 312 h, evaluated after 13 days, 100=total damage, 0=no damage; for pest or weed control at 1000 g/ha: dose 1,000 g/ha. In a few lines: as §2

The term pest or weed control denotes the degree to which the test organism was suppressed or injured, in per cent. Lower therefore signals weak suppression. For orientation: melting point means the temperature, or range, at which the solid turns liquid.

`COC(=O)c1nc(C2CC2)nc(N)c1C` [Compound 2-41] yielded a melting point of 152 to 153 °C. Moreover, the pest or weed control at 1000 g/ha in series [1] came to 70%. Besides, the pest or weed control at 1000 g/ha in the series with Setaria faberi (SETFA) [2] was found to be 30%. Also, in series [3], the pest or weed control at 1000 g/ha was 20%. The pest or weed control at 1000 g/ha in series [4] was determined as 20%. Also, the pest or weed control at 1000 g/ha with Solanum nigrum (SOLNI) [5] stood at 50%. In addition, the pest or weed control at 1000 g/ha in series [6] was 60%. The same molecule came in with a pest or weed control at 1000 g/ha in series [7] of 100%. Besides, the pest or weed control at 1000 g/ha in the series on Setaria faberi (SETFA) [8] was found to be 80%. In addition, the pest or weed control at 1000 g/ha in [9] was 60%. The molecule further gave a pest or weed control at 1000 g/ha in series [10] of 40%. The same molecule returned a pest or weed control at 1000 g/ha with Solanum nigrum (SOLNI) [11] of 90%. The same molecule gave a pest or weed control at 1000 g/ha in [12] of 100%.
For `C=Cc1c(C(=O)OC)nc(C2CC2)nc1[S+](C)[O-]` (centres unmarked) [Compound 2-401, 2-cyclopropyl-5-ethenyl-6-methoxycarbonyl-4-methylsulphinyl-pyrimidine], the melting point fell in the range of 74 to 75 °C. For the same molecule, the pest or weed control at 1000 g/ha in [1] amounted to 70%. The same molecule returned a pest or weed control at 1000 g/ha in the series with Setaria faberi (SETFA) [2] of 0%. This molecule had a pest or weed control at 1000 g/ha in [3] of 0%. For the same molecule, the pest or weed control at 1000 g/ha in [4] is 0%. The pest or weed control at 1000 g/ha in the series on Solanum nigrum (SOLNI) [5] was determined as 10%. Moreover, in series [6], the pest or weed control at 1000 g/ha came out at 70%. In series [7], this molecule gave a pest or weed control at 1000 g/ha of 70%. Further, the pest or weed control at 1000 g/ha in the series on Setaria faberi (SETFA) [8] was determined as 0%. Moreover, in series [9], the pest or weed control at 1000 g/ha was determined as 0%. In series [10], this molecule returned a pest or weed control at 1000 g/ha of 0%. The molecule further returned a pest or weed control at 1000 g/ha in the series with Solanum nigrum (SOLNI) [11] of 80%. The same molecule registered a pest or weed control at 1000 g/ha in series [12] of 70%.
For the molecule `C=C(OCC)c1ccc(-c2nc(N)c(C(C)=O)c(C(=O)OC)n2)c(F)c1OC` [Compound 66-53, 4-amino-2-(4-[1-ethoxyethenyl]-2-fluoro-3-methoxy-phenyl)-6-methoxycarbonyl-5-methylcarbonyl-pyrimidine], the pest or weed control at 1000 g/ha came to 10% in series [1]; 0% in the series with Setaria faberi (SETFA) [2]; 0% in series [3]; 0% in series [4]; 20% in the series with Solanum nigrum (SOLNI) [5]; 30% in series [6]. The pest or weed control at 1000 g/ha in series [7] came out at 20%; in the series with Setaria faberi (SETFA) [8] it was 10%; in series [9], 0%; in series [10], 0%; in the series with Solanum nigrum (SOLNI) [11] it was 60%; in [12] it was 30%.
Take `C=Cc1c(N)nc(-c2ccc(F)c(F)c2)nc1C(=O)OC` [Compound 67-61, 4-Amino-2-(3,4-difluorophenyl)-5-ethenyl-6-methoxycarbonyl-pyrimidine]: the pest or weed control at 1000 g/ha in [1] stood at 100%; with Setaria faberi (SETFA) [2], 30%; in series [3], 30%; in series [4], 30%; in the series with Solanum nigrum (SOLNI) [5], 70%; in series [6], 50%. The pest or weed control at 1000 g/ha in [7] worked out at 100%; with Setaria faberi (SETFA) [8], 10%; in [9], 40%; in series [10] it was 20%; in the series on Solanum nigrum (SOLNI) [11] it was 90%; in series [12] it was 60%.
For the molecule `C=Cc1c(N)nc(-c2ccc(C#N)cc2)nc1C(=O)OC` [Compound 68-61, 4-Amino-2-(4-cyanophenyl)-5-ethenyl-6-methoxycarbonyl-pyrimidine], the pest or weed control at 250 g/ha in series [1] (dose 250 g/ha) amounted to 10%; in the series with Setaria faberi (SETFA) [2] (dose 250 g/ha) it was 0%; in series [3] (dose 250 g/ha) it was 0%; in series [4] (dose 250 g/ha) it was 0%; in the series on Solanum nigrum (SOLNI) [5] (dose 250 g/ha) it was 30%; in [6] (dose 250 g/ha) it was 0%. Moreover, the pest or weed control at 250 g/ha in series [7] (dose 250 g/ha) turned out to be 30%; in the series with Setaria faberi (SETFA) [8] (dose 250 g/ha), 0%; in series [9] (dose 250 g/ha), 0%; in series [10] (dose 250 g/ha), 0%; in the series on Solanum nigrum (SOLNI) [11] (dose 250 g/ha), 80%; in series [12] (dose 250 g/ha) it was 40%.
Regarding `C=Cc1c(N)nc(-c2ccc(C(=O)OC)cc2)nc1C(=O)OC` [Compound 69-61, 4-Amino-5-ethenyl-6-methoxycarbonyl-2-(4-methoxycarbonyl-phenyl)-pyrimidine], the pest or weed control at 1000 g/ha (in series [1]; in the series on Setaria faberi (SETFA) [2]; in series [3]; in series [4]; with Solanum nigrum (SOLNI) [5]; in series [6]) was 0% each time. The pest or weed control at 1000 g/ha in series [7] was determined as 0%; in the series with Setaria faberi (SETFA) [8], 0%; in [9], 0%; in series [10], 0%; with Solanum nigrum (SOLNI) [11] it was 20%; in [12], 30%.
In the case of `C=Cc1c(N)nc(-c2ccc3c(c2)OCO3)nc1C(=O)OC` [Compound 70-61, 4-Amino-5-ethenyl-6-methoxycarbonyl-2-(3,4-methylenedioxy-phenyl)-pyrimidine], the pest or weed control at 1000 g/ha in [1] amounted to 100%; in the series on Setaria faberi (SETFA) [2], 70%; in [3], 90%; in series [4], 80%; with Solanum nigrum (SOLNI) [5] it was 100%; in series [6] it was 80%. The pest or weed control at 1000 g/ha in [7] worked out at 100%; in the series with Setaria faberi (SETFA) [8], 40%; in series [9], 100%; in [10] it was 100%; in the series with Solanum nigrum (SOLNI) [11], 90%; in series [12] it was 80%.
Regarding `C=Cc1c(N)nc(-c2ccc3c(c2)OCCO3)nc1C(=O)OC` [Compound 71-61, 4-Amino-5-ethenyl-2-(3,4-ethylenedioxy-phenyl)-6-methoxycarbonyl-pyrimidine], the pest or weed control at 1000 g/ha in series [1] was 0%; in the series on Setaria faberi (SETFA) [2], 0%; in [3], 20%; in series [4], 10%; with Solanum nigrum (SOLNI) [5], 40%; in series [6] it was 0%. Also, the pest or weed control at 1000 g/ha in [7] worked out at 20%; in the series with Setaria faberi (SETFA) [8], 0%; in series [9] it was 30%; in [10], 0%; in the series with Solanum nigrum (SOLNI) [11], 60%; in series [12], 40%.
With `C=Cc1c(N)nc(-c2ccc(SC)cc2)nc1C(=O)OC` [Compound 72-61, 4-Amino-5-ethenyl-6-methoxycarbonyl-2-(4-methylthiophenyl)-pyrimidine], the pest or weed control at 1000 g/ha in series [1] worked out at 60%; in the series on Setaria faberi (SETFA) [2], 0%; in [3], 0%; in series [4], 0%; in the series with Solanum nigrum (SOLNI) [5], 50%; in [6], 70%. The pest or weed control at 1000 g/ha was determined as 10% in [7]; 0% in the series with Setaria faberi (SETFA) [8]; 0% in [9]; 10% in [10]; 60% in the series on Solanum nigrum (SOLNI) [11]; 50% in series [12].
`C=Cc1c(N)nc(-c2ccc3ccccc3c2)nc1C(=O)OC` [Compound 73-61, 4-Amino-5-ethenyl-6-methoxycarbonyl-2-(2-naphthyl)-pyrimidine]: the pest or weed control at 1000 g/ha (in series [1]; in the series with Setaria faberi (SETFA) [2]; in series [3]; in series [4]; in the series on Solanum nigrum (SOLNI) [5]; in series [6]) was 0% in each case. Further, the pest or weed control at 1000 g/ha in series [7] was determined as 20%; in the series on Setaria faberi (SETFA) [8], 0%; in series [9] it was 0%; in series [10], 0%; in the series with Solanum nigrum (SOLNI) [11], 30%; in [12], 0%.
